Measured values reported in article PMC6150201, “Synthesis and Antitumor Activity of Novel Arylpiperazine Derivatives Containing the Saccharin Moiety” (Molecules : A Journal of Synthetic Chemistry and Natural …, 2017).

Columns and labels:
PC-3 cells = assay: In vitro cytotoxicity, CCK-8 assay, PC-3 cells; format: cell-based, human; settings: for IC50: PC-3, androgen-insensitive human prostate cancer cell line, CCK-8, 24 h exposure, mean ± SD of three experiments; for selective activity for PC-3 cells over other cancer cells: from IC50 comparison
Procedure: (§1) The synthesized target compounds 4–21 were evaluated for their in vitro cytotoxic activities against three human prostate cancer cell lines (PC-3, LNCaP, and DU145) and compared with their effects on the human prostate epithelial cell line WPMY-1 by CCK-8 assay.
(§2) PC-3 and WPMY-1 cells were cultured in Dulbecco’s modified Eagle’s medium (DMEM, Invitrogen, Carlsbad, CA, USA) supplemented with 10% fetal bovine serum (FBS, Hyclone, Logan, UT, USA), 100 U/mL penicillin, and 0.1 mg/mL streptomycin (Invitrogen). DU145 cells were cultured in RPMI1640 media supplemented with 10% fetal bovine serum (FBS, Hyclone), 100 U/mL penicillin, and 0.1 mg/mL streptomycin (Invitrogen). LNCaP cells were cultured in F12 media supplemented with 10% fetal bovine serum (FBS, Hyclone), 100 U/mL penicillin, and 0.1 mg/mL streptomycin (Invitrogen). The cells were incubated at 37 °C in a humidified atmosphere with 5% CO2.
(§3) Cell proliferation was measured with the Cell Counting Kit-8 (CCK-8) assay kit (Dojindo Corp., Kumamoto, Japan). Cells were harvested during their logarithmic growth phase, seeded in 96-well plates at a density of 1 × 10^5 cells/mL, and cultured at 37 °C in a humidified incubator (5% CO2) for 24 h, followed by exposure to various concentrations of compounds tested for 24 h. Subsequently, 10 μL of CCK-8 (Dojindo) was added to each well, and the cells were then incubated for an additional 1 h at 37 °C to convert WST-8 into formazan. Cell growth inhibition was determined by measuring the absorbance (Abs) at λ = 450 nm using a microplate reader. Three independent experiments were performed. Cell growth inhibition was calculated according to the following equation: Growth inhibition = (1 − OD of treated cells / OD of control cells) × 100%
(§4) The half maximal inhibitory concentrations (IC50) were obtained from a linear regression analysis of the concentration-response curves plotted for each tested compound.

LNCaP cells = assay: In vitro cytotoxicity, CCK-8 assay, LNCaP cells; format: cell-based, human; settings: for IC50: LNCaP, androgen-sensitive human prostate cancer cell line, CCK-8, 24 h exposure, mean ± SD of three experiments; for selective activity for LNCaP cells over other cancer cells: from IC50 comparison
Procedure: as §1, §2, §3, §4

DU145 cells = assay: In vitro cytotoxicity, CCK-8 assay, DU145 cells; format: cell-based, human; settings: for IC50: androgen-insensitive human prostate cancer cell line, CCK-8, 24 h exposure, mean ± SD of three experiments; for selective activity for DU145 cells over other cancer cells: in words, from IC50 comparison
Procedure: as §1, §2, §3, §4

WPMY-1 cells = assay: In vitro cytotoxicity, CCK-8 assay, WPMY-1 prostate epithelial cells; format: cell-based, human; settings: for IC50: WPMY-1, human prostate epithelial cell line, CCK-8, 24 h exposure, mean ± SD of three experiments
Procedure: as §1, §2, §3, §4

COc1cccc(N2CCN(CCc3ccc(CN4C(=O)c5ccccc5S4(=O)=O)cc3)CC2)c1 [Compound 9, Saccharin N-(1-(4-(methyl)phenethyl)-4-(3-methoxyphenyl)piperazine)]
IC50 (PC-3 cells): 5.43 ± 0.18 µM | selective activity for PC-3 cells over other cancer cells (PC-3 cells; in words): excellent selective activity | IC50 (LNCaP cells): > 50 µM | IC50 (DU145 cells; Homo sapiens, DU-145, 24 h): > 50 µM | IC50 (WPMY-1 cells): > 50 µM | melting point: 134 to 135 °C

O=C1c2ccccc2S(=O)(=O)N1Cc1ccc(CCN2CCN(c3ccc(F)cc3)CC2)cc1 [Compound 12, Saccharin N-(1-(4-(methyl)phenethyl)-4-(4-fluorophenyl)piperazine)]
IC50 (PC-3 cells): > 50 µM | IC50 (LNCaP cells): > 50 µM | IC50 (DU145 cells; Homo sapiens, DU-145, 24 h): < 2 µM | IC50 (DU145 cells): 1.14 ± 0.1 µM | selective activity for DU145 cells over other cancer cells (DU145 cells): excellent selective activity | IC50 (WPMY-1 cells): > 50 µM | cytotoxic effects on human epithelial prostate normal cells WPMY-1 (in words) (WPMY-1 cells): weak cytotoxic effects | melting point: 152 to 153 °C

N#Cc1ccccc1N1CCN(CCc2ccc(CN3C(=O)c4ccccc4S3(=O)=O)cc2)CC1 [Compound 19, Saccharin N-(2-(4-(4-(methyl)phenethyl)piperazin-1-yl)benzonitrile)]
IC50 (PC-3 cells): > 50 µM | IC50 (LNCaP cells): 5.14 ± 0.16 µM | selective activity for LNCaP cells over other cancer cells (LNCaP cells; in words): excellent selective activity | IC50 (DU145 cells; Homo sapiens, DU-145, 24 h): > 50 µM | IC50 (WPMY-1 cells): 39.15 ± 0.17 µM | melting point: 146 to 147 °C

O=C1c2ccccc2S(=O)(=O)N1Cc1ccc(CCN2CCN(c3ccccc3)CC2)cc1 [Compound 4, Saccharin N-(1-(4-(methyl)phenethyl)-4-phenylpiperazine)]
IC50 (PC-3 cells): > 50 µM | IC50 (LNCaP cells): > 50 µM | IC50 (DU145 cells; Homo sapiens, DU-145, 24 h): < 2 µM | IC50 (DU145 cells): 1.28 ± 0.04 µM | selective activity for DU145 cells over other cancer cells (DU145 cells): excellent selective activity | IC50 (WPMY-1 cells): > 50 µM | melting point: 147 to 148 °C

O=C1c2ccccc2S(=O)(=O)N1Cc1ccc(CCN2CCN(c3cccc(Cl)c3Cl)CC2)cc1 [Compound 17, Saccharin N-(1-(4-(methyl)phenethyl)-4-(2,3-dichlorophenyl)piperazine)]
IC50 (PC-3 cells): > 50 µM | IC50 (LNCaP cells): 4.08 ± 0.15 µM | selective activity for LNCaP cells over other cancer cells (LNCaP cells; in words): excellent selective activity | IC50 (DU145 cells; Homo sapiens, DU-145, 24 h): > 50 µM | IC50 (WPMY-1 cells): > 50 µM | cytotoxic effects on human epithelial prostate normal cells WPMY-1 (in words) (WPMY-1 cells): weak cytotoxic effects | melting point: 178 to 179 °C

COc1ccccc1N1CCN(CC(O)COc2cccc3ccccc23)CC1 (stereo not drawn) [Naftopidil, reference compound]
IC50 (PC-3 cells): 42.1 ± 0.79 µM | IC50 (LNCaP cells): 22.4 ± 0.61 µM | IC50 (DU145 cells; Homo sapiens, DU-145, 24 h): 34.58 ± 0.31 µM | IC50 (WPMY-1 cells): > 50 µM

O=C1c2ccccc2S(=O)(=O)N1Cc1ccc(CCN2CCN(c3ccc(C(F)(F)F)cc3)CC2)cc1 [Compound 21, Saccharin N-(1-(4-(methyl)phenethyl)-4-(4-(trifluoromethyl)phenyl)piperazine)]
IC50 (PC-3 cells): 3.73 ± 0.08 µM | selective activity for PC-3 cells over other cancer cells (PC-3 cells; in words): excellent selective activity | IC50 (LNCaP cells): > 50 µM | IC50 (DU145 cells; Homo sapiens, DU-145, 24 h): > 50 µM | melting point: 108 to 109 °C

N#Cc1ccc(N2CCN(CCc3ccc(CN4C(=O)c5ccccc5S4(=O)=O)cc3)CC2)cc1 [Compound 20, Saccharin N-(4-(4-(4-(methyl)phenethyl)piperazin-1-yl)benzonitrile)]
IC50 (PC-3 cells): 2.66 ± 0.04 µM | IC50 (LNCaP cells): 3.43 ± 0.1 µM | IC50 (DU145 cells; Homo sapiens, DU-145, 24 h): > 50 µM | IC50 (WPMY-1 cells): 46.3 ± 0.51 µM | melting point: 179 to 180 °C

O=C1c2ccccc2S(=O)(=O)N1Cc1ccc(CCN2CCN(c3ccccc3F)CC2)cc1 [Compound 11, Saccharin N-(1-(4-(methyl)phenethyl)-4-(2-fluorophenyl)piperazine)]
IC50 (PC-3 cells): > 50 µM | IC50 (LNCaP cells): 47.5 ± 2.17 µM | IC50 (DU145 cells; Homo sapiens, DU-145, 24 h): > 50 µM | IC50 (WPMY-1 cells): > 50 µM | melting point: 137 to 138 °C

Cc1ccc(N2CCN(CCc3ccc(CN4C(=O)c5ccccc5S4(=O)=O)cc3)CC2)cc1 [Compound 8, Saccharin N-(1-(4-(methyl)phenethyl)-4-p-tolylpiperazine)]
IC50 (PC-3 cells): > 50 µM | IC50 (LNCaP cells): > 50 µM | IC50 (DU145 cells; Homo sapiens, DU-145, 24 h): > 50 µM | melting point: 130 to 131 °C

O=C1c2ccccc2S(=O)(=O)N1Cc1ccc(CCN2CCN(c3ccccc3Cl)CC2)cc1 [Compound 14, Saccharin N-(1-(4-(methyl)phenethyl)-4-(2-chlorophenyl)piperazine)]
IC50 (PC-3 cells): 14.6 ± 1.12 µM | IC50 (LNCaP cells): > 50 µM | IC50 (DU145 cells; Homo sapiens, DU-145, 24 h): 3.39 ± 0.11 µM | selective activity for DU145 cells over other cancer cells (DU145 cells): excellent selective activity | melting point: 135 to 136 °C

O=C1c2ccccc2S(=O)(=O)N1Cc1ccc(CCN2CCN(c3ccc(Br)cc3)CC2)cc1 [Compound 18, Saccharin N-(1-(4-(methyl)phenethyl)-4-(4-bromophenyl)piperazine)]
IC50 (PC-3 cells): 2.25 ± 0.07 µM | IC50 (LNCaP cells): > 50 µM | IC50 (DU145 cells; Homo sapiens, DU-145, 24 h): 9.05 ± 0.23 µM | IC50 (WPMY-1 cells): > 50 µM | melting point: 105 to 106 °C

O=C1c2ccccc2S(=O)(=O)N1Cc1ccc(CCN2CCN(c3ccccn3)CC2)cc1 [Compound 5, Saccharin N-(1-(4-(methyl)phenethyl)-4-(pyridin-2-yl)piperazine)]
IC50 (PC-3 cells): > 50 µM | IC50 (LNCaP cells): > 50 µM | IC50 (DU145 cells; Homo sapiens, DU-145, 24 h): 3.57 ± 0.08 µM | selective activity for DU145 cells over other cancer cells (DU145 cells): excellent selective activity | IC50 (WPMY-1 cells): > 50 µM | melting point: 149 to 150 °C

O=C1c2ccccc2S(=O)(=O)N1Cc1ccc(CCN2CCN(c3ccc(F)cc3F)CC2)cc1 [Compound 13, Saccharin N-(1-(4-(methyl)phenethyl)-4-(2,4-difluorophenyl)piperazine)]
IC50 (PC-3 cells): > 50 µM | IC50 (LNCaP cells): 5.03 ± 0.13 µM | selective activity for LNCaP cells over other cancer cells (LNCaP cells; in words): excellent selective activity | IC50 (DU145 cells; Homo sapiens, DU-145, 24 h): > 50 µM | IC50 (WPMY-1 cells): > 50 µM | melting point: 113 to 114 °C

O=C1c2ccccc2S(=O)(=O)N1Cc1ccc(CCN2CCN(c3ncccn3)CC2)cc1 [Compound 6, Saccharin N-(2-(4-(4-(methyl)phenethyl)piperazin-1-yl)pyrimidine)]
IC50 (PC-3 cells): 4.84 ± 0.17 µM | selective activity for PC-3 cells over other cancer cells (PC-3 cells; in words): excellent selective activity | IC50 (LNCaP cells): > 50 µM | IC50 (DU145 cells; Homo sapiens, DU-145, 24 h): > 50 µM | IC50 (WPMY-1 cells): 48.3 ± 0.56 µM | melting point: 153 to 154 °C

O=C1c2ccccc2S(=O)(=O)N1Cc1ccc(CCN2CCN(c3ccc(Cl)cc3)CC2)cc1 [Compound 16]
IC50 (PC-3 cells): > 50 µM | cytotoxic activity for PC-3 cells (in words) (PC-3 cells; in words): weak cytotoxic activity | IC50 (LNCaP cells): > 50 µM | cytotoxic activity for LNCaP cells (in words) (LNCaP cells; in words): weak cytotoxic activity | IC50 (DU145 cells; Homo sapiens, DU-145, 24 h): > 50 µM | melting point: 158 to 159 °C

O=C1c2ccccc2S(=O)(=O)N1Cc1ccc(CCN2CCN(c3cccc(Cl)c3)CC2)cc1 [Compound 15, Saccharin N-(1-(4-(methyl)phenethyl)-4-(3-chlorophenyl)piperazine)]
IC50 (PC-3 cells): 2.74 ± 0.11 µM | IC50 (LNCaP cells): 3.43 ± 0.16 µM | IC50 (DU145 cells; Homo sapiens, DU-145, 24 h): > 50 µM | IC50 (WPMY-1 cells): > 50 µM | melting point: 143 to 144 °C

Cc1cccc(N2CCN(CCc3ccc(CN4C(=O)c5ccccc5S4(=O)=O)cc3)CC2)c1 [Compound 7, Saccharin N-(1-(4-(methyl)phenethyl)-4-m-tolylpiperazine)]
IC50 (PC-3 cells): > 50 µM | IC50 (LNCaP cells): > 50 µM | IC50 (DU145 cells; Homo sapiens, DU-145, 24 h): 3.65 ± 0.1 µM | selective activity for DU145 cells over other cancer cells (DU145 cells): excellent selective activity | IC50 (WPMY-1 cells): > 50 µM | melting point: 126 to 127 °C
